Assay results published in patent US8598355B2, “Amide compound” (Astellas Pharma Inc., priority 2008, dated 2013).

What was measured:
[1] = target: T1, EP4 receptor (Homo sapiens, UniProt P35408); experiment: EP4 receptor antagonistic activity by measurement of cAMP amount in human Jurkat cells (HTRF); type: cell-based; conditions: inhibition of cAMP, PGE2 100 nM
T1 construct: endogenous in cells; host or cells: Jurkat cells (human leukemia T lymphoma), no transfection described
Method: Evaluation Test of EP4 Receptor Antagonistic Activity by Measurement of cAMP Amount in Human Jurkat Cells
Jurkat cells (derived from human leukemia T lymphoma) were cultured with RPMI1640 (added with 10% fetal bovine serum) using a F75 flask. After proliferation to semiconfluency, indomethacin having a final concentration of 5 μM was added thereto, and the cells were further cultured for 18 hours. The cells were collected in a 15-mL Spitz tube, prepared to be 1×10^6 cells/mL using a Cell Banker (Mitsubishi Kagaku Iatron), and stored at −80° C. until used for assay. The cells were cultured in a CO2 incubator (37° C., 5% CO2).
A cAMP HiRange kit (Cisbio international) was used for cAMP measurement. A test compound, PGE2, and the cells were diluted and prepared with an assay buffer. The test compound was prepared to have a 3-fold concentration relative to the final concentration, PGE2 was prepared to be 300 nM, and the Jurkat cells frozen stored were prepared to be 1×10^6 cells/mL by thawing them at 37° C. To a 384-well U-bottom black microplate (Corning) were added the test compound, the cells, and PGE2 in this order in each in an amount of 5 μL, followed by shaking with a plate shaker and incubating at room temperature for 30 minutes. After incubation, 5 μL of a d2 reagent which had been diluted 0.6-fold with a lysis buffer was added to each well, followed by shaking with a plate shaker. Subsequently, 5 μL of an europium cryptate reagent which had been diluted 0.6-fold with a lysis buffer was added to each well, followed by shaking with a plate shaker and incubating at room temperature for 60 minutes under light shielding. After incubation, the fluorescence of the cryptate at 620 nm and the fluorescence of the d2 at 655 nm were measured using ARVO1420 (PerkinElmer). The cAMPs of 280, 70, 17.5, 4.38, 1.09, 0.27, and 0.068 nM were measured simultaneously for creating a standard curve. All measurements were performed in quadruplicate, and inhibitory rates were calculated by determining the cAMP amount of each test sample to the value obtained by subtracting the cAMP amount of the group without addition of PGE2 from the cAMP amount of the group with addition of PGE2 of 100 nM. IC50 values were calculated by a Logistic regression method.
In this connection, as the “assay buffer” and “lysis buffer” above, those as shown below were used:
Assay buffer; 1×HBSS (Hanks buffered salt solution, Nissui Pharmaceutical Co., Ltd.), 20 mM HEPES (pH 7.4, Nakarai Tesque), 0.5 mM IBMX (3-isobutyl-1-methylxanthine, WAKO), 0.02% CHAPS (Sigma), 0.1% Bovine serum albumin (Sigma), 2 μM Indomethacin (Sigma)
Lysis buffer; 50 mM NaPO4, 0.8 M KF, 1% Triton X-100, 0.2% Bovine serum albumin

[2] = target: rat EP4 receptor (Rattus norvegicus, UniProt P43114); experiment: Evaluation test of rat EP4 receptor affinity ([3H]PGE2 binding, membrane fraction of HEK293 cells expressing rat EP4); set-up: expressed in transfected cells; host or cells: HEK293 cells, transient transfection with Lipofectamine 2000; membrane fraction; conditions: [3H]PGE2 0.3 nM
Sequence of rat EP4 receptor (P43114 whole entry): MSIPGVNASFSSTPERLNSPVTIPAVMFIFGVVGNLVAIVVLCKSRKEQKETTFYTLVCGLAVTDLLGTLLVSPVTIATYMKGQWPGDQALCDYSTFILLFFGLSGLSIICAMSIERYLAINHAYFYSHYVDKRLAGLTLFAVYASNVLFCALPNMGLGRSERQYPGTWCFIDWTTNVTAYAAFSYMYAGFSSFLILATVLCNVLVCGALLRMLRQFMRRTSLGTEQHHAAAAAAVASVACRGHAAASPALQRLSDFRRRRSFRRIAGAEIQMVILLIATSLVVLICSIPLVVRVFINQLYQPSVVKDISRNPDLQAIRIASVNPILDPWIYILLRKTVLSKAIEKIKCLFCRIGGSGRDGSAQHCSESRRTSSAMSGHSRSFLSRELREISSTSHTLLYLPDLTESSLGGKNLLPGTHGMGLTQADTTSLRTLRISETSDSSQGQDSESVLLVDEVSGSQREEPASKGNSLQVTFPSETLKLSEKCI
Method: Evaluation Test of Rat EP4 Receptor Affinity
Cell Culturing and Transfection
Using a 10 cm collagen-coated dish (Asahi Glass), HEK293 cells were cultured in D-MEM culture medium, the culture medium was removed at a confluence (90 to 100% density state) and washed with a phosphate buffer saline (PBS), and then the cells were detached with N,N,N′,N′-tetrakis(carboxymethyl)ethylenediamine (EDTA). The number of the cells were counted and seeded on a 15 cm collagen-coated dish to a confluence of 70%. On the next day, to an Opti-MEM culture medium at 1.2 mL/dish was added Lipofectamine 2000 (Invitrogen) at 60 μL/dish, followed by leaving to stand at room temperature for 5 minutes. A plasmid in which rat EP4 (Sequence Number 1) had been inserted into a TA cloning site of pcDNA3.1-V5-His-topo was added thereto at 15 μg/dish. After leaving to stand at room temperature for 30 minutes, the resultant was added to the dish and cultured for 20 to 24 hours. The cell culture was carried out in a CO2 incubator (37° C., 5% CO2).
Preparation of Membrane Fraction
The culture medium was removed by suction, 10 mL of cooled PBS was added thereto per 15 cm dish, and the cells were scraped using a cell scraper (Sumitomo Bakelite). They were washed with cooled PBS (1,200 rpm, 4° C., 5 min), and then suspended in 6 mL of cooled 20 mM Tris-HCl (pH 7.4; Nakalai Tesque Inc., including 5 mM EDTA (Nakalai Tesque Inc.) per dish and the resultant was homogenized using a Polytron and the homogenate was centrifuged (26,000 rpm, 20 min, 4° C.). The obtained precipitate was resuspended in cooled 20 mM Tris-HCl and homogenized again using a Polytron, and the homogenate was centrifuged (26,000 rpm, 20 min, 4° C.). The obtained precipitate was resuspended in 50 mM HEPES (pH 7.5; Dojindo Laboratories) at 1 mL per dish, homogenized using a Polytron, and freeze-stored at −80° C. as a membrane fraction. At this time, a part thereof was used for the measurement of the protein concentration. Measurement of the protein concentration was carried out in duplicate using a Bio-Rad Protein assay kit (Bio-Rad Laboratories) in accordance with the appended standard Protocol.
[^3H]PGE2 50 μL (final concentration 0.3 nM; Perkin Elmer), 100 μL (20 μg/well) of a membrane fraction prepared from the rat EP4 expression cell and 50 μL of a test compound were mixed in a 96-well microplate (Sumitomo Bakelite), incubated at room temperature for 1 hour, filtered by suction on a UniFilter-96 GF/B (Perkin Elmer) using a FilterMate Harvester (Perkin Elmer), and then washed three times with 300 μL/well of a cooled assay buffer. Dilution of [^3H]PGE2 and the membrane fraction was carried out using an assay buffer (50 mM HEPES, 10 mM MgCl2), and dilution of the test compound and the unlabeled PGE2 was carried out using DMSO and an assay buffer. Further, in the case of the addition of a human serum albumin (HSA), dilution was carried out using an assay buffer containing 4% HSA (final concentration 1%; Sigma). The UniFilter-96 GF/B was treated preliminarily by washing twice with 200 μL/well of a cooled assay buffer. The UniFilter-96 GF/B after filtration was dried in a dryer overnight, 50 μL/well of MicroScint20 (Perkin Elmer) was added thereto, and then the radioactivity was measured using a TopCount (Perkin Elmer). For measurement of the non-specific binding, an unlabeled PGE2 (final concentration 1 μM; Cayman) was added. All of the measurements were carried out in duplicate, and the specific binding amount was determined by subtracting the non-specific binding amount from the total binding amount. The Ki value was calculated according to the general methods.
In the connection, Ex represents the below-described Example Compound number.

T1 sequence (P35408 whole entry): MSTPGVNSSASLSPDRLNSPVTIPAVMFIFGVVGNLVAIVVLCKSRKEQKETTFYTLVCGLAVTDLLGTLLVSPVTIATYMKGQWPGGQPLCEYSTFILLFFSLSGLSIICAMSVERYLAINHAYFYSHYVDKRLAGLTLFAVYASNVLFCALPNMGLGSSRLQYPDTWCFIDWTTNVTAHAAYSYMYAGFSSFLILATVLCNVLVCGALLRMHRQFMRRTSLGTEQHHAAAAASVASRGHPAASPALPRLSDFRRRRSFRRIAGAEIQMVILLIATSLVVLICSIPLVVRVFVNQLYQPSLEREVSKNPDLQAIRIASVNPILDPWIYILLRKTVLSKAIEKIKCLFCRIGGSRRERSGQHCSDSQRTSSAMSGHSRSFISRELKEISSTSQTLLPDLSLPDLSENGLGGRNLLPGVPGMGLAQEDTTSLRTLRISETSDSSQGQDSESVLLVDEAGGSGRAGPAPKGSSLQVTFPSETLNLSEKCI

Row | IC50 [1] [nM] | Ki [2] [nM] | Structure (SMILES)
1 | 0.094 | 1.4 | O=C(NC[C@H]1CC[C@H](C(=O)O)CC1)c1cc(Cl)cc2ccn(Cc3ccc4ccccc4n3)c12 [Example 53]
2 | 0.037 | 0.85 | O=C(O)c1ccc(CNC(=O)c2cc(Cl)cc3ccn(Cc4ccc5ccccc5n4)c23)cc1 [Example 57]
3 | 0.15 | 1.4 | O=C(NC[C@H]1CC[C@H](C(=O)O)CC1)c1cc(C(F)(F)F)cc2ccn(Cc3ccc4ccccc4n3)c12 [Example 124]
